Experimental data: the supplement of paper PMC7695840
Counter-ions that a name gives are not always drawn.

How the values were obtained:
[1] = system: Staphylococcus aureus MW2 (mecA+); assay: IC50 (growth, competition assay); conditions: cefoxitin: subinhibitory
Method in brief: (§1)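 Two fluorescent S. aureus MW2 strains, one carrying and one lacking the resistance gene, were pre-induced, mixed 1:1 and grown unshaken in LB in 1536-well plates for 20 h at 37 °C and 90% humidity with a subinhibitory drug dose set each day. Compounds were tested on five- or nine-point 2-fold gradients in two dye-swapped replicates. DsRed (540/590) and GFP (485/520) signals were scaled per plate between the medians of single-strain controls, and No Treatment was then set to 0.5. For each strain, IC50 was taken as the dose that halved the No Treatment signal, or else the maximal signal.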

[2] = system: Staphylococcus aureus MW2 delta-mecA (mecA-); assay: IC50 (growth, competition assay); conditions: cefoxitin: subinhibitory
Method in brief: as §1

Row | Compound | IC50 ([1]; fluorescent label: DsRed) [µM] | IC50 ([1]; fluorescent label: GFP) [µM] | IC50 ([2]; fluorescent label: DsRed) [µM] | IC50 ([2]; fluorescent label: GFP) [µM]
1 | O=C(Nc1cccc(C(F)(F)F)c1)Nc1cc(S(=O)(=O)NC2CC2)ccc1-c1ccsc1 [AGI-6780] | 33.7 | 36.9 | 18.5 | 11.6
2 | CO[C@@H]1[C@@H](OC(N)=O)[C@@H](O)[C@H](Oc2ccc3c(O)c(NC(=O)c4ccc(O)c(CC=C(C)C)c4)c(=O)oc3c2C)OC1(C)C [ALBAMYCIN] | < 9.85 | < 9.85 | < 9.85 | < 9.85
3 | CCCCC(CC)CN=C(N)N=C(N)NCCCCCCNC(N)=NC(N)=NCC(CC)CCCC (centres undefined) [ALEXIDINE HYDROCHLORIDE] | < 9.85 | < 9.85 | < 9.85 | < 9.85
4 | C[C@@H](NCCCc1cccc(C(F)(F)F)c1)c1cccc2ccccc12 [AMG-073 HCl (Cinacalcet hydrochloride)] | 48.8 | 54.9 | 13.4 | < 9.85
5 | NCCOB(c1ccccc1)c1ccccc1 [AMINOETHOXYDIPHENYLBORANE] | 25.6 | 25.1 | 11.1 | 11.7
6 | CC1(C)S[C@@H]2[C@H](NC(=O)[C@H](N)c3ccc(O)cc3)C(=O)N2[C@H]1C(=O)O [AMOXIL] | 135 | 106 | < 9.85 | < 9.85
7 | COc1cc(NS(C)(=O)=O)ccc1Nc1c2ccccc2nc2ccccc12 [AMSIDYL] | 74.3 | 76.1 | < 9.85 | < 9.85
8 | Cc1nnc(SCC2=C(C(=O)O)N3C(=O)[C@@H](NC(=O)Cn4cnnn4)[C@H]3SC2)s1 [ANCEF] | 17.8 | 14.9 | < 9.85 | < 9.85
9 | COc1ccc([C@@H](C)C(=O)c2ccc(O)cc2O)cc1 [ANGOLENSIN (R)] | 22.3 | 27.7 | < 9.85 | < 9.85
10 | CCN(CC)C(=S)SSC(=S)N(CC)CC [ANTABUSE] | 31.7 | 33.4 | 12.3 | 11.1
11 | O=C(O)c1ccccc1Nc1cccc(C(F)(F)F)c1 [ARLEF] | 17.2 | 19 | < 9.85 | 24.8
12 | O=C1NC(=O)[C@@H](c2cn3c4c(cccc24)CCC3)[C@@H]1c1c[nH]c2ccccc12 [ARQ 197 (Tivantinib)] | 107 | 112 | 32.2 | 57.3
13 | C#CC[C@H](c1nc2cc(Cl)ccc2c(=O)n1Nc1ccccc1)N(CCCN)C(=O)c1cccc(Cl)c1F [ARQ 621] | 89.2 | 105 | 23.9 | 11.2
14 | CCCCCC(=O)Cc1cc(O)cc(O)c1C(=O)Oc1cc(CC(=O)CCCCC)c(C(=O)O)c(OC)c1 [ARTHONIOIC ACID] | 24 | 56 | 45.5 | 49.7
15 | C[C@H]1[C@H](C)CC[C@]2(C(=O)O)CC[C@]3(C)C(=CC[C@@H]4[C@@]5(C)C[C@@H](O)[C@H](O)[C@@](C)(CO)[C@@H]5CC[C@]43C)[C@H]12 [ASIATIC ACID] | 109 | > 150 | 123 | 115
16 | CCOc1nc2cccc(C(=O)OC(C)OC(=O)OC3CCCCC3)c2n1Cc1ccc(-c2ccccc2-c2nn[nH]n2)cc1 (centres undefined) [ATACAND] | 9.89 | 14.8 | < 9.85 | < 9.85
17 | CN(C)[C@@H]1C(O)=C(C(N)=O)C(=O)[C@@]2(O)C(O)=C3C(=O)c4c(O)ccc(Cl)c4[C@@](C)(O)[C@H]3C[C@@H]12 [AUREOMYCIN] | < 9.85 | < 9.85 | < 9.85 | < 9.85
18 | COc1c(N2C[C@@H]3CCCN[C@@H]3C2)c(F)cc2c(=O)c(C(=O)O)cn(C3CC3)c12 [AVELOX] | < 9.85 | < 9.85 | < 9.85 | < 9.85
19 | C=CCCCCCCCCCCCc1ccco1 [AVOCADENOFURAN] | 48.4 | 80.9 | 16.1 | < 9.85
20 | Cc1cc(Nc2nc(N[C@@H](C)c3ccc(F)cc3)c(C#N)cc2F)n[nH]1 [AZ 960] | 110 | 112 | 2.4 | 1.67
21 | N[C@@H]1CCCN(c2c(/C=C3\SC(=O)NC3=O)cccc2-c2ccccc2)C1 [AZD1208] | 111 | 101 | 26.7 | 22.8
22 | Cc1ncc(-c2ccnc(Nc3ccc(S(C)(=O)=O)cc3)n2)n1C(C)C [AZD5438] | > 150 | > 150 | 10.3 | < 9.85
23 | CC1(C)S[C@@H]2[C@H](NC(=O)[C@H](NC(=O)N3CCNC3=O)c3ccccc3)C(=O)N2[C@H]1C(=O)O [AZLIN] | 32.2 | 47.2 | < 9.85 | < 9.85
24 | CN(Cc1cnc2nc(N)nc(N)c2n1)c1ccc(C(=O)N[C@@H](CCC(=O)O)C(=O)O)cc1 [Abitrexate (Methotrexate)] | 115 | 103 | 36.3 | 31.5
25 | CCCCC[C@H](CC(=O)NO)C(=O)N[C@H](C(=O)N1CCC[C@H]1CO)C(C)C [Actinonin] | 15.6 | 11 | < 9.85 | < 9.85
26 | O=c1[nH]cc(F)c(=O)[nH]1 [Adrucil (Fluorouracil)] | 1.76 | 1.78 | < 0.498 | < 0.498
